Measurements as given in patent US20190029987A1, “DIMETHYL FUMARATE (DMF) FOR PREVENTION OR TREATMENT OF GOUT, ACNE, DIABETES, VITILIGO AND/OR PYODERMA GANGRENOSUM” (UNIVERSITAT ZURICH, priority 2016, published 2019).
Structures can show the parent of a compound that is named as a salt.

Columns and labels:
Nrf2 [1] = assay: UVB-induced Nrf2 degradation in HPKs (Western blot); assay type: cell-based, human; conditions: harvested after 1 h, FIG. 7D
From the text: Next, the inventors investigated the activity of Nrf2 upon activation of the NLRP3 inflammasome, since inflammasome activation is ROS-dependent. […] This is surprising, since UVB irradiation is a strong inducer of ROS production and it can be anticipated that the cells would benefit from Nrf2 activation. UVB-induced secretion by HPKs requires expression of NLRP1 and NLRP3 [21]. Both nigericin and MSU crystals are considered as “true” NLRP3 activators, but HPKs cannot phagocytose MSU crystals. Therefore, the inventors treated HPKs with nigericin only and THP-1 cells with either of these NLRP3 activators. […] Therefore, NLRP3 inflammasome activation most likely induces Nrf2 protein degradation. […] However, inflammasome activation-induced Nrf2 degradation was blocked upon ablation of ASC or NLRP3 expression (FIG. 4G) and upon treatment of cells with the ROS blocker PDTC or the Ca2+ chelator BAPTA-AM (Supplementary FIG. 2D). […] However, inflammasome function was not impaired, as reflected by normal processing of pro-IL-18 (FIG. 4H). Although Keap1 expression is partially dispensable for Nrf2 degradation by inflammasome activation, the transcription factor is directed to the proteasome under these conditions, since Nrf2 degradation was inhibited by the proteasome inhibitor MG132 (FIG. 4I and FIG. 7D).
(§1) FIG. 7: (A-C) HPKs were transfected with siRNAs for 3 d as indicated. Scrambled (scr) siRNA and siRNA targeting the unrelated vascular endothelial growth factor (VEGF) served as controls. Western blots of (A) total lysates or (B) nuclear and cytoplasmic lysates and (C) qRT-PCR for expression of target gene expression. (D) HPKs were treated with MG132 (1 μM), PDTC (500 μM) or BAPTA-AM (12.5 μM) for 10 min and harvested (before UV) or irradiated with UVB and harvested after 1 h. Western blots showing expression of Nrf2. (E) Differentiated and primed THP-1 cells were pretreated with cycloheximide (CHX, 30 μg/ml) for 1 h before priming cells with upLPS overnight. Western blots show expression of the indicated proteins. […] Statistics: (C) Mann-Whitney test, related to scr control. *P≤0.05

[2] = system: Nrf2 target genes Gstp1, Nqo1 and Srxn1; assay: Nrf2 target gene expression in liver of treated mice (qRT-PCR); assay type: in vivo, mouse; conditions: oral gavage 20 mg/kg, FIG. 3F
Protocol: (§7) Monosodium urate (MSU) crystal-induced peritonitis is a mouse model of inflammation and gout, which is dependent on IL-1, IL-1R1, MyD88 and the NLRP3 inflammasome. […] The inventors chose a different way of administration and supplied mice with SFN or DMF by oral gavage to determine a potential anti-inflammatory activity of the Nrf2 activators in vivo (FIG. 3). […] The inventors analysed the cellular infiltrate in the peritoneum 6 h post injection of MSU crystals.
qRT-PCR was performed with the LightCycler 480 SYBR Green Master or the FastStart Universal SYBR Green Master (both Roche, Rotkreuz, Switzerland) using total cellular RNA. Specific primer pairs (Supplementary Table 2) were designed to generate an approximately 150 bp fragment flanking an intron-exon border of the corresponding gene. […]
Mice treated by gavage with (A, B, C) SFN (25 mg/kg) in PBS or (D, E, F) DMF (20 mg/kg) in H2O containing 0.08% methocel and 10% DMSO, vehicle-treated mice served as control. […] Peritonitis was induced by peritoneal injection of 2 mg MSU crystals, (B, E) After 6 h the number of neutrophils of the peritoneal lavage was determined by flow cytornetry. (C, F) At the same time, the liver was isolated and analysed for the expression of the Nrf2 target genes Gstp1, Nqo1 and Srxn1 by qRT-PCR. […]

NLRP3 inflammasome [3] = target: T1, NLRP3 inflammasome (Homo sapiens, UniProt Q96P20); assay: Inflammasome activation by nigericin/MSU in differentiated, primed THP-1 cells (IL-1β ELISA, Western blot); assay type: cell-based; conditions: THP-1, 50 μM 1 h before 5 μM nigericin or 150 μg/ml MSU, 5 h, FIG. 2B
T1 construct: endogenous in cells
From the text: (§2) To determine the effects of Nrf2 activating compounds on inflammasome activation, the inventors treated keratinocytes with different doses of SFN, tBHQ, DMF or 15d-PGJ2 and irradiated the cells with UVB.
(§3) SFN, DMF, 15d-PGJ2, tBHQ, zymosan, ATP, poly(dA:dT), cycloheximide, puromycin, and doxycycline were purchased from Sigma (Munich, Germany), nigericin from Enzo Life Sciences (New York, US-NY), MG132 from Calbiochem (Darmstadt, Germany), and blasticidin from Invivogen (Toulouse, France). Release of IL-1p was determined by ELISA according the instructions of the manufacturer (R&D Systems, Minneapolis, US-MN). MSU crystals were prepared by crystallisation of a supersaturated solution of uric acid under mildly basic conditions. Briefly, uric acid was added to a solution of NaOH, the solution was boiled until the uric acid was dissolved and passed through a filter. NaCl was added and crystallisation was performed at 4° C. Crystals were filtered, then dried using a speedvac, weighted and autoclaved.
(§4) (A) HPKs were treated with the indicated concentrations of the Nrf2 activating compound tBHQ irradiated with UVB 30 min later and harvested after 5 h. ELISA measurements were performed for quantification of IL-1β secretion and Western blots for analysis of expression and activation of the indicated proteins. Specific bands are marked with an asterisk. (B) THP-1 cells were differentiated with PMA (27 nM) for 3 d, primed with upLPS (100 ng/ml) overnight, and 1 h before inflammasome activation (5 μM nigericin, 150 μg/ml MSU) treated with SFN (10 μM), 15-PGJ2 (10 μM) or DMF (50 μM) (15-PG: 15-PGJ2). Cells and supernatants were harvested after 5 h and analysed for inflammasome activation by ELISA measurement of IL-1p and Western blots as indicated. (C) Freshly isolated PBMCs from human blood were primed overnight with upLPS (100 ng/ml) and treated with SFN (10 μM), tBHQ (10 μM), DMF (50 μM) or 15-PGJ2 (10 μM) 1 h before inflammasome activation by nigericin (5 μM). ELISA measurement for secretion of IL-1β as readout for inflammasome activation was performed after 5 h. (D) HPKs or (E) differentiated and primed THP-1 cells were pretreated with cycloheximide (CHX, 30 μg/ml) to block protein synthesis for 1 h before SFN (10 μM) was added to the cells and after an additional hour the inflammasome was activated by (D) irradiation with UVB or (E) treatment with nigericin (5 μM). Cells and supernatants were harvested after (D) 6 h or (E) 3.5 h and analysed for inflammasome activation by Western blot as indicated. (A-E) Representative experiments performed at least three times are shown. Statistics: (A-C) Error bars represent the mean±SD of a representative experiment performed in triplicates. One-way ANOVA was performed. **P≤0.01; ***P≤0.001.
(A-C) HPKs were irradiated with (A) UVB or treated with (B) nigericin (5 μM) and cells and supernatants were harvested at different time points as indicated. Western blots for expression and activation of the indicated proteins. Specific bands are marked with an asterisk. (C) Expression of Nrf2 and Nrf2 target genes was determined by qRT-PCR. (D, E) THP-1 cells were differentiated with PMA (27 nM) for 3 d, primed with upLPS (100 ng/ml) overnight and treated with nigericin (5 μM) or MSU (150 μg/ml). Cells and supernatants were harvested at different time points as indicated and analysed for (D) expression and activation of the proteins as indicated by Western blot and (E) expression of Nrf2 and Nrf2 target genes by qRT-PCR. (F) HPKs were transfected with specific siRNAs as indicated (scr: scrambled, c1: caspase-1, K1; Keap1), 2 d later irradiated with UVB or treated with nigericin (5 μM). Cells were harvested after 1 h or 5 h, and lysates were analysed for the expression of the indicated proteins by Western blot.

Nrf2 [4] = assay: Nrf2 stabilisation and nuclear accumulation in human primary keratinocytes (Western blot); assay type: cell-based; conditions: HPKs, FIG. 6E,F; for expression of the other Nrf2 complex proteins Keap1, Cul3, and Rbx1: 1 h; for stabilisation and nuclear accumulation of Nrf2 protein: harvested after 1 h
Protocol: (§5) Human primary keratinocytes (HPKs) constitutively express pro-IL-1β and inflammasome proteins.
(§6) FIG. 6: Bone marrow (BM) cells were isolated from Nrf2-deficient mice and wt litterfnates and differentiated into dendritic cells (DCs). (A, B) After priming with upLPS overnight, BMDCs were treated with the NLRP3 inflammasome activators nigericin (20 μM), zymosan (20 μg/ml), MSU (150 μg/ml), ATP (5 mM) or transfected with poly(dA:dT) (1 μg/ml) for activation of the AIM2 inflammasome. After 6 h, supernatants were analysed for secretion of IL-1β by (A) ELISA or (B) Western blot. Mock-treated but primed BMDCs were analysed for expression of inflammasome proteins and pro-IL-1β at the (C) mRNA level by qRT-PCR or at the (D) protein level by Western blot. (B, D) Duplicates from two individual mice per genotype are shown (biological replicates). (E-G) HPKs were treated with the Nrf2 activators SFN (10 μM), tBHQ (10 μM), DMF (50 μM) and 15d-PGJ2 (10 μM). After 1 h, the cells were harvested and analysed for expression of the indicated proteins using total cell lysates (E) or cytoplasmic and nuclear lysates (F). Western blots for the nuclear protein lamin NC and the cytoplasmic protein α-tubulin served as controls. Specific bands are marked with an asterisk. (G) Total RNA was isolated after 8 h and qRT-PCR was performed for quantification of expression of the Nrf2 target genes glutamate-cysteine ligase, catalytic subunit (GCLC), glutamate-cysteine ligase, modifier subunit (GCLM), and NAD(P)H dehydrogenase, quinone 1 (N001). (A-G) Representative experiments performed at least three times are shown. […] Mann-Whitney test was performed. […] Mann-Whitney test was performed. *P≤0.05

NLRP3 inflammasome [5] = assay: UVB irradiation-induced inflammasome activation in HPKs (IL-1β ELISA, Western blot); assay type: cell-based, human; conditions: FIG. 2A, 8A-C; for inflammasome activation (processed caspase-1, mature IL-1β and -18 in the supernatant): different doses, UVB 30 min later, harvested after 5 h
From the text: as §2, §3, §4
FIG. 8: (A-C) HPKs were treated with the Nrf2 activating compounds (A) SFN, (B) DMF, and (C) 15d-PGJ2, irradiated with UVB 30 min later and harvested after 5 h. Analogous experiment as described in FIG. 2A for tBHQ. (D) THP-1 cells were differentiated with TPA for 3 d and primed with LPS overnight. Then, cells were treated with the solvent DMSO, SFN (10 μM) or 15-PGJ2 (10 μM). After 30 min the inflammasome was activated by nigericin treatment and cells and supernatants were harvested after 2.5 h. Western blots showing prolL-1β and mature IL-1p in the lysate and supernatant. 20% lysate and supernatant of a 12 well was used, respectively, in order to allow a comparison. IL-1β was quantified in the supernatant by ELISA and cytotoxicity by LDH release.

NLRP3 inflammasome [6] = target: T1, NLRP3 inflammasome; assay: Nigericin-induced IL-1β secretion in human PBMCs (ELISA); assay type: cell-based; conditions: 5 h, FIG. 2C
From the text: as §2, §3, §4

[7] = system: Nrf2 target genes (GCLC, GCLM, NAD(P)H dehydrogenase, quinone 1); assay: Nrf2 target gene expression in HPKs (qRT-PCR); assay type: cell-based, human; conditions: RNA after 8 h, FIG. 6G
Protocol: as §5
qRT-PCR was performed with the LightCycler 480 SYBR Green Master or the FastStart Universal SYBR Green Master (both Roche, Rotkreuz, Switzerland) using total cellular RNA. Specific primer pairs (Supplementary Table 2) were designed to generate an approximately 150 bp fragment flanking an intron-exon border of the corresponding gene. The LightCycler 480 96-well version (ROCHE, Rotkreuz, Switzerland) or the ViiA 7 Real-Time FOR System (Life Technologies, Carlsbad, US-CA) was used for reaction and detection according the instructions of the manufacturer.
as §6

[8] = system: Monosodium urate (MSU) crystal-induced peritonitis; assay: MSU crystal-induced peritonitis mouse model (neutrophils in peritoneal lavage); assay type: in vivo; conditions: mice, oral gavage 20 mg/kg for six days, 6 h post 2 mg MSU crystals, vs control mice, n=7, FIG. 3E
Protocol: as §7
Mice were challenged with 2 mg of MSU crystals for 6 hours as previously described (Chen et a Olin Invest 2006. 116: 2262-2271).
Mice treated by gavage with (A, B, C) SFN (25 mg/kg) in PBS or (D, E, F) DMF (20 mg/kg) in H2O containing 0.08% methocel and 10% DMSO, vehicle-treated mice served as control. Regime for (A) SFN or (D) DMF treatment. Peritonitis was induced by peritoneal injection of 2 mg MSU crystals, (B, E) After 6 h the number of neutrophils of the peritoneal lavage was determined by flow cytornetry. […] Statistics: Student's t-test. (B, C) n≥3, (E, F) n=7. *P≤0.05; **P≤0.01

THP-1 cells = assay: Block of protein synthesis in THP-1 cells (Western blot); assay type: cell-based, human; conditions: THP-1, 30 μg/ml for 1 h before priming with upLPS overnight, FIG. 7E
Protocol: To determine the effects of Nrf2 activating compounds on inflammasome activation, the inventors treated keratinocytes with different doses of SFN, tBHQ, DMF or 15d-PGJ2 and irradiated the cells with UVB. […] As the Nrf2 activators were added to the cells only 15 to 30 min prior to inflammasome activation, it is unlikely that Nrf2 target genes are involved in inflammasome inhibition.
as §1

T1 sequence (Q96P20 whole entry): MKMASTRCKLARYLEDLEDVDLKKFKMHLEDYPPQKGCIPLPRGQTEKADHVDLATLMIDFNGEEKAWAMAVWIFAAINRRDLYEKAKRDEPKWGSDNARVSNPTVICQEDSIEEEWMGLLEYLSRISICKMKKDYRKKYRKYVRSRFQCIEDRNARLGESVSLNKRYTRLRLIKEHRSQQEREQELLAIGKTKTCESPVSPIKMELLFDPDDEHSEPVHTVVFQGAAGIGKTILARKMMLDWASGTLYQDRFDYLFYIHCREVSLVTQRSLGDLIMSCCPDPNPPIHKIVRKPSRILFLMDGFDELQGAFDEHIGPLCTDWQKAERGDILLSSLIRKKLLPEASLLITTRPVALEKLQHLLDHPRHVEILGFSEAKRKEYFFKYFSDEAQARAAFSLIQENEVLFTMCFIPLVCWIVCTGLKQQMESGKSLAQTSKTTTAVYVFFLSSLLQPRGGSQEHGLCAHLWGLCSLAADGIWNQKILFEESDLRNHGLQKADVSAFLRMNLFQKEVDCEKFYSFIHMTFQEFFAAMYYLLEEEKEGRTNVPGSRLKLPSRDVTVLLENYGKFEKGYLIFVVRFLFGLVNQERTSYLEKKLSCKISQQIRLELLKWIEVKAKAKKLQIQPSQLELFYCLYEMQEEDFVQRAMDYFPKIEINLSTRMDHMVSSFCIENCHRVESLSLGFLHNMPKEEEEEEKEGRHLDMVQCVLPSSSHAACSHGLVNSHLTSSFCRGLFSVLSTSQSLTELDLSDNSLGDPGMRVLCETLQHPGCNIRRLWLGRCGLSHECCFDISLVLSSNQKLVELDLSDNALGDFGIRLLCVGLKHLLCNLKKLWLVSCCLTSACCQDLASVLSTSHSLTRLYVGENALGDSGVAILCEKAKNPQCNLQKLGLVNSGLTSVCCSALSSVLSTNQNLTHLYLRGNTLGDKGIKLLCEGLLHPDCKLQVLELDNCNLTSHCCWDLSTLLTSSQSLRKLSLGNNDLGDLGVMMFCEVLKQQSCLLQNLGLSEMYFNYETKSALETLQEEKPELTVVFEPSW

`N.S=C(S)N1CCCC1` [PDTC] was tested, and the “inflammasome activation-induced Nrf2 degradation” value (Nrf2 [1]; 500 μM for 10 min) was “blocked”.

`CC(=O)OCOC(=O)CN(CC(=O)OCOC(C)=O)c1ccccc1OCCOc1ccccc1N(CC(=O)OCOC(C)=O)CC(=O)OCOC(C)=O` [BAPTA-AM] was tested, and the “inflammasome activation-induced Nrf2 degradation” value (Nrf2 [1]; 12.5 μM for 10 min) was “blocked”.

`COC(=O)/C=C/C(=O)OC` [DMF, dimethyl fumarate] was tested, and the “expression of Nrf2 target genes in the liver” value [2] was “increased mRNA expression”, the IL-1β secretion (NLRP3 inflammasome [3]) was “inhibited IL-1β secretion” and the “expression of the other Nrf2 complex proteins Keap1, Cul3, and Rbx1” value (Nrf2 [4]; 50 μM) was “not affected”. For the same compound, the “stabilisation and nuclear accumulation of Nrf2 protein” value (Nrf2 [4]; 50 μM) was “fast and robust stabilisation and nuclear accumulation of Nrf2 protein”, the “relative efficiency/potency of inflammasome inhibition between compounds” value (NLRP3 inflammasome [5]; UVB, same concentrations) was “less potent in inflammasome inhibition than SFN” and the “inflammasome activation (processed caspase-1, mature IL-1β and -18 in the supernatant)” value (NLRP3 inflammasome [5]) was “inhibited inflammasome activation in a dose-dependent manner”. For the same compound, the IL-1β secretion (NLRP3 inflammasome [6]; 50 μM 1 h before nigericin (5 μM)) was “inhibited IL-1β secretion”, the “expression of classical Nrf2 target genes” value ([7]; 50 μM) was “induction of classical Nrf2 target genes” and the “number of neutrophils in the peritoneum” value [8] was “significantly reduced”.

For `CC(C)(C)c1cc(O)ccc1O` [tBHQ, tert-butylhydroquinone], the “expression of the other Nrf2 complex proteins Keap1, Cul3, and Rbx1” value (Nrf2 [4]; 10 μM) was “not affected”, the “stabilisation and nuclear accumulation of Nrf2 protein” value (Nrf2 [4]; 10 μM) was “fast and robust stabilisation and nuclear accumulation of Nrf2 protein” and the “inflammasome activation (processed caspase-1, mature IL-1β and -18 in the supernatant)” value (NLRP3 inflammasome [5]) was “inhibited inflammasome activation in a dose-dependent manner”. The IL-1β secretion (NLRP3 inflammasome [6]; 10 μM 1 h before nigericin (5 μM)) was “inhibited IL-1β secretion” and the “expression of classical Nrf2 target genes” value ([7]; 10 μM) was “induction of classical Nrf2 target genes”.

`C[C@@H]1C[C@@H]([C@H](O)CC2CC(=O)NC(=O)C2)C(=O)[C@@H](C)C1` [cycloheximide] was tested, and the protein synthesis (THP-1 cells) was “blocks protein synthesis”.
